From publication PMC11284800 (Journal of Medicinal Chemistry, 2024)
Like-named read-outs stand apart in the source and are kept apart here.

What was measured:
hCB1R = hCB1R (Homo sapiens, UniProt P21554); assay: [3H]CP55,940 displacement assay on CHO membranes, CB1R; type: binding; set-up: host or cells: CHO-K1 (CHOK1hCB1_bgal); details: for Ki: [3H]CP55,940 displacement; for hCB1R % displacement at 10 µM: [3H]CP55,940 displacement at 10 µM compound, ± SEM; for Binding to CB1R (in words): radioligand binding assay
Sequence of hCB1R (P21554 whole entry): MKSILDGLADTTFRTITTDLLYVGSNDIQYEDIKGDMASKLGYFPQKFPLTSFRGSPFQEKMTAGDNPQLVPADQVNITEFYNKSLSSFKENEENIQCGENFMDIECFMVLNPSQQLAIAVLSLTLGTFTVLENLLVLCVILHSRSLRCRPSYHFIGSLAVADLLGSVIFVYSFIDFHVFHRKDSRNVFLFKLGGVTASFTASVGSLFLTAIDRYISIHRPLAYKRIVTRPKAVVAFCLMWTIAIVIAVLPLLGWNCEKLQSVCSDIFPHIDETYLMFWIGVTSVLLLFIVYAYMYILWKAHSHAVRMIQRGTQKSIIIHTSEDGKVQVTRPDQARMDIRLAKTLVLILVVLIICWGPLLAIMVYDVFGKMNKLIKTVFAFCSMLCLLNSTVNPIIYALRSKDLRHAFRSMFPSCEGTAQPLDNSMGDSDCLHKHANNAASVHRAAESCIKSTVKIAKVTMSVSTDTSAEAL

human CB2R = biological target: T1, human CB2R (Homo sapiens, UniProt P34972); assay: [3H]CP55,940 displacement assay on CHO membranes, CB2R; type: binding; details: for hCB2R % displacement at 10 µM: [3H]CP55,940 displacement at 10 µM compound, ± SEM; for Ki: [3H]CP55,940 displacement; for Binding to CB2R (in words): radioligand binding assay
T1 construct: host or cells: CHO-K1 (CHOK1hCB2_bgal)
T1 sequence (P34972 whole entry): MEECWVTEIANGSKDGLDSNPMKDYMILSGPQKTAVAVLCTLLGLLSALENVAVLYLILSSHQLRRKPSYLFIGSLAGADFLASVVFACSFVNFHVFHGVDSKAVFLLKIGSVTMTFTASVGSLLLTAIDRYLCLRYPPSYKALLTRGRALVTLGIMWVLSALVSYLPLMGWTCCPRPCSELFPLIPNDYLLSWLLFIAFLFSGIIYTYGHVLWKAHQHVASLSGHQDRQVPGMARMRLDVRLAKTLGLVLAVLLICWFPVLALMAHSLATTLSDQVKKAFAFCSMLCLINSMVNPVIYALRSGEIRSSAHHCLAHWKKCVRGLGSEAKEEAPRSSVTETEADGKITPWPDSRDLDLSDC

[1] = Photophysical characterization in PBS; type: physicochemical; details: PBS pH 7.4
[2] = CHO membranes stably expressing human CB1R, means of three experiments, read-out: hCB1R Ki
[3] = CHO membranes stably expressing human CB2R, means of three experiments, read-out: hCB2R Ki
[4] = hCB2R Ki, CHO membranes stably expressing human CB2R, means of three experiments
[5] = read-out: hCB1R Ki, CHO membranes stably expressing human CB1R, means of three experiments
[6] = read-out: hCB2R Ki, CHO membranes stably expressing human CB2R, means of three experiments
[7] = hCB1R Ki, CHO membranes stably expressing human CB1R, means of three experiments

SMILES	Ki (hCB1R; [2]) [nM]	hCB2R % displacement at 10 µM (human CB2R) [%]	Ki (human CB2R; [3]) [nM]	Ki (human CB2R; [4]) [nM]	Abs (absorbance maximum) [1] [nm]	Em (emission maximum) [1] [nm]	QY (quantum yield) [1] [%]	hCB1R % displacement at 10 µM (hCB1R) [%]	Ki (hCB1R; [7]) [nM]	further results
CCC(CC)(NC(=O)c1cc(-c2cc(C(F)(F)F)ccc2C(F)(F)F)n(C[C@H]2CCCO2)c1C)C(=O)NCCOCCNC(=O)OC(C)(C)C [Compound 22a, tert-Butyl (R)-(2-(2-(2-(5-(2,5-Bis(trifluoromethyl)phenyl)-2-methyl-1-((tetrahydrofuran-2-yl)methyl)-1H-pyrrole-3-carboxamido)-2-ethylbutanamido)ethoxy)ethyl)carbamate]	1420	20 ± 3	> 10000	–	–	–	–	–	–	–
CCC(CC)(NC(=O)c1nn(-c2ccc(Cl)cc2Cl)c(-c2ccc(Cl)cc2)c1C)C(=O)NCCOCCNC(=O)OC(C)(C)C [Compound 23a, tert-Butyl (2-(2-(2-(5-(4-Chlorophenyl)-1-(2,4-dichlorophenyl)-4-methyl-1H-pyrazole-3-carboxamido)-2-ethylbutanamido)ethoxy)ethyl)carbamate]	–	–	–	1590	–	–	–	–	–	Ki (hCB1R; hCB1R pKi ± SEM, CHO membranes): 37.2 nM
CCC(CC)(NC(=O)c1cc(-c2cc(C(F)(F)F)ccc2C(F)(F)F)n(C[C@H]2CCCO2)c1C)C(=O)NCCOCCOCCNc1ccc([N+](=O)[O-])c2n[nH]nc12 [Compound 52, (R)-5-(2,5-Bis(trifluoromethyl)phenyl)-2-methyl-N-(3-((2-(2-(2-((7-nitro-2H-benzo[d][1,2,3]triazol-4-yl)amino)ethoxy)ethoxy)ethyl)carbamoyl)pentan-3-yl)-1-((tetrahydrofuran-2-yl)methyl)-1H-pyrrole-3-carboxamide]	225	–	1620	–	425	495	0.10	–	–	–
CCC(CC)(NC(=O)c1cnc(OCCOC)c(-c2ccc(Cl)cc2)n1)C(=O)NCCOCCOCCNc1ccc([N+](=O)[O-])c2nonc12 [Compound 34, 6-(4-Chlorophenyl)-5-(2-methoxyethoxy)-N-(3-((2-(2-(2-((7-nitrobenzo[c][1,2,5]oxadiazol-4-yl)amino)ethoxy)ethoxy)ethyl)carbamoyl)pentan-3-yl)pyrazine-2-carboxamide]	> 10000	–	–	–	480	545	2.00	32 ± 6	–	Ki (human CB2R; CHO membranes, read-out: hCB2R pKi ± SEM (converted)): 708 nM
CCC(CC)(NC(=O)c1nn(-c2ccc(Cl)cc2Cl)c2c1CCCc1cc(Cl)ccc1-2)C(=O)NCCOCCOCCNC(=O)c1ccc2c(c1)C(=O)OC21c2ccc(N(C)C)cc2Oc2cc(N(C)C)ccc21 [Compound 33]	–	21 ± 3	–	–	520	585	11.10	-5 ± 1	–	Binding to CB1R (in words) (hCB1R): did not bind; Ki (hCB1R; [5]): > 10000 nM; Binding to CB2R (in words) (human CB2R): did not bind; Ki (human CB2R; [6]): > 10000 nM
CCC(CC)(NC(=O)c1nn(Cc2cccc(F)c2)c2ccccc12)C(=O)NCCOCCOCCNc1ccc([N+](=O)[O-])c2nonc12 [Compound 36, 1-(3-Fluorobenzyl)-N-(3-((2-(2-(2-((7-nitrobenzo[c][1,2,5]oxadiazol-4-yl)amino)ethoxy)ethoxy)ethyl)carbamoyl)pentan-3-yl)-1H-indazole-3-carboxamide]	–	–	–	79	475	565	1.50	–	1170	–
CCC(CC)(NC(=O)c1cnc(OCC2CC2)c(-c2ccc(F)cc2)c1)C(=O)NCCOCCOCCNC(=O)c1ccc2c(c1)C(=O)OC21c2ccc(N(C)C)cc2Oc2cc(N(C)C)ccc21 [Compound 41]	> 10000	27 ± 3	> 10000	–	560	585	47.40	9 ± 1	–	Binding to CB1R (in words) (hCB1R): did not bind; Binding to CB2R (in words) (human CB2R): did not bind
CCC(CC)(NC(=O)c1nn(Cc2cccc(F)c2)c2ccccc12)C(=O)NCCOCCOCCNC(=O)OC(C)(C)C [Compound 27, tert-Butyl (3,3-Diethyl-1-(1-(3-fluorobenzyl)-1H-indazol-3-yl)-1,4-dioxo-8,11-dioxa-2,5-diazatridecan-13-yl)carbamate]	–	–	–	108	–	–	–	48 ± 2	> 10000	–
CCC(CC)(NC(=O)c1cnc(OCC2CC2)c(-c2ccc(F)cc2)c1)C(=O)NCCOCCOCCNC(=O)OC(C)(C)C [Compound 25, tert-Butyl (1-(6-(Cyclopropylmethoxy)-5-(4-fluorophenyl)pyridin-3-yl)-3,3-diethyl-1,4-dioxo-8,11-dioxa-2,5-diazatridecan-13-yl)carbamate]	–	–	–	818	–	–	–	–	3060	Ki (hCB1R; hCB1R pKi ± SEM, CHO membranes): 3020 nM
CCC(CC)(NC(=O)c1cnc(OCCOC)c(-c2ccc(Cl)cc2)n1)C(=O)NCCOCCOCCNC(=O)c1ccc2c(c1)C(=O)OC21c2ccc(N(C)C)cc2Oc2cc(N(C)C)ccc21 [Compound 35]	> 10000	2 ± 0	> 10000	–	560	590	56.20	-6 ± 5	–	Binding to CB1R (in words) (hCB1R): did not bind; Binding to CB2R (in words) (human CB2R): did not bind
CCC(CC)(NC(=O)c1cc(-c2cc(C(F)(F)F)ccc2C(F)(F)F)n(C[C@H]2CCCO2)c1C)C(=O)NCCOCCOCCNc1ccc([N+](=O)[O-])c2nsnc12 [Compound 51, (R)-5-(2,5-Bis(trifluoromethyl)phenyl)-2-methyl-N-(3-((2-(2-(2-((7-nitrobenzo[c][1,2,5]thiadiazol-4-yl)amino)ethoxy)ethoxy)ethyl)carbamoyl)pentan-3-yl)-1-((tetrahydrofuran-2-yl)methyl)-1H-pyrrole-3-carboxamide]	316	–	493	–	465	550	0.30	–	–	–
CCC(CC)(NC(=O)c1cnc(OCC2CC2)c(-c2ccc(F)cc2)c1)C(=O)NCCOCCOCCNc1ccc([N+](=O)[O-])c2nonc12 [Compound 40, 6-(Cyclopropylmethoxy)-5-(4-fluorophenyl)-N-(3-((2-(2-(2-((7-nitrobenzo[c][1,2,5]oxadiazol-4-yl)amino)ethoxy)ethoxy)ethyl)carbamoyl)pentan-3-yl)nicotinamide]	–	–	–	481	465	550	1.30	34 ± 1	> 10000	–
CCC(CC)(NC(=O)c1nn(-c2ccc(Cl)cc2Cl)c(-c2ccc(Cl)cc2)c1C)C(=O)NCCOCCOCCOCCOCCNC(=O)OC(C)(C)C [Compound 23d, tert-Butyl (1-(5-(4-Chlorophenyl)-1-(2,4-dichlorophenyl)-4-methyl-1H-pyrazol-3-yl)-3,3-diethyl-1,4-dioxo-8,11,14,17-tetraoxa-2,5-diazanonadecan-19-yl)carbamate]	–	–	–	2120	–	–	–	–	603	–
CCC(CC)(NC(=O)c1nn(-c2ccc(Cl)cc2Cl)c2c1CCCc1cc(Cl)ccc1-2)C(=O)NCCOCCOCCNC(=O)OC(C)(C)C [Compound 24, tert-Butyl (1-(8-Chloro-1-(2,4-dichlorophenyl)-1,4,5,6-tetrahydrobenzo[6,7]cyclohepta[1,2-c]pyrazol-3-yl)-3,3-diethyl-1,4-dioxo-8,11-dioxa-2,5-diazatridecan-13-yl)carbamate]	–	–	–	776	–	–	–	28 ± 3	> 10000	–
CCC(CC)(NC(=O)c1nn(-c2ccc(Cl)cc2Cl)c(-c2ccc(Cl)cc2)c1C)C(=O)NCCOCCOCCNC(=O)c1ccc2c(c1)C(=O)OC21c2ccc(N(C)C)cc2Oc2cc(N(C)C)ccc21 [Compound 31]	–	32 ± 6	–	–	520	585	17.50	37 ± 5	–	Ki (hCB1R; [5]): > 10000 nM; Ki (human CB2R; [6]): > 10000 nM
CCC(CC)(NC(=O)c1nn(-c2ccc(Cl)cc2Cl)c(-c2ccc(Cl)cc2)c1C)C(=O)NCCOCCOCCOCCNC(=O)OC(C)(C)C [Compound 23c, tert-Butyl (1-(5-(4-Chlorophenyl)-1-(2,4-dichlorophenyl)-4-methyl-1H-pyrazol-3-yl)-3,3-diethyl-1,4-dioxo-8,11,14-trioxa-2,5-diazahexadecan-16-yl)carbamate]	–	–	–	2120	–	–	–	–	397	–
CCC(CC)(NC(=O)c1cc(-c2cc(C(F)(F)F)ccc2C(F)(F)F)n(C[C@H]2CCCO2)c1C)C(=O)NCCOCCOCCOCCNC(=O)OC(C)(C)C [Compound 22c, tert-Butyl (R)-(1-(5-(2,5-Bis(trifluoromethyl)phenyl)-2-methyl-1-((tetrahydrofuran-2-yl)methyl)-1H-pyrrol-3-yl)-3,3-diethyl-1,4-dioxo-8,11,14-trioxa-2,5-diazahexadecan-16-yl)carbamate]	1220	23 ± 5	> 10000	–	–	–	–	–	–	–
CCC(CC)(NC(=O)c1cnc(OCCOC)c(-c2ccc(Cl)cc2)n1)C(=O)NCCOCCOCCNC(=O)OC(C)(C)C [Compound 26, tert-Butyl (1-(6-(4-Chlorophenyl)-5-(2-methoxyethoxy)pyrazin-2-yl)-3,3-diethyl-1,4-dioxo-8,11-dioxa-2,5-diazatridecan-13-yl)carbamate]	> 10000	–	701	–	–	–	–	32 ± 6	–	–
